Results from patent US20260262643A1, “HERBICIDAL BENZOXAZINES” (FMC CORPORATION, priority 2022, published 2026).

What was measured:
blackgrass [1] = assay: Test A preemergence; type: in vivo, Alopecurus myosuroides
In short: (§1)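 Greenhouse pot test, 10 days. Compound (non-phytotoxic solvent, surfactant) sprayed on soil at seeding or on seedlings at one- to two-leaf stage. Visual injury rated 0–100 against untreated plants.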

corn [2] = assay: Test A preemergence; type: in vivo, Zea mays
Source text: (§2) Seeds of plant species selected from barnyardgrass (Echinochloa crusgalli), blackgrass (Alopecurus myosuroides), corn (Zea mays), foxtail, giant (giant foxtail, Setaria faberi), goosegrass (Eleusine indica), kochia (Bassia scoparia), oat, wild (wild oat, Avena fatua), pigweed, palmer (palmer amaranth, palmer pigweed, Amaranthus palmeri), Pigweed, Redroot (redroot pigweed, Amaranthus retroflexus), ragweed (common ragweed, Ambrosia artemisiifolia), ryegrass, Italian (italian ryegrass, Lolium multiflorum), soybean (Glycine max), and wheat (Triticum aestivum) were planted into a blend of loam soil and sand and treated preemergence with a directed soil spray using test chemicals formulated in a non-phytotoxic solvent mixture which included a surfactant. At the same time, plants selected from these crops and weed species and also galium (catchweed bedstraw, Galium aparine) and horseweed (Erigeron canadensis) were planted in pots containing the same blend of loam soil and sand and treated with postemergence applications of test chemicals formulated in the same manner. Plants ranged in height from 2 to 10 cm and were in the one- to two-leaf stage for the postemergence treatment. Treated plants and untreated controls were maintained in a greenhouse for 10 days, after which time all treated plants were compared to untreated controls and visually evaluated for injury. Plant response ratings, summarized in Table A, are based on a 0 to 100 scale where 0 is no effect and 100 is complete control. A dash (-) response means no test result.

foxtail, giant [3] = assay: Test A preemergence; type: in vivo, Setaria faberi
In short: as §1

goosegrass [4] = assay: Test A preemergence; type: in vivo, Eleusine indica
In short: as §1

kochia [5] = assay: Test A preemergence; type: in vivo, Bassia scoparia
In short: as §1

oat, wild [6] = assay: Test A preemergence; type: in vivo, Avena fatua
Source text: as §2

pigweed, palmer [7] = assay: Test A preemergence; type: in vivo, Amaranthus palmeri
In short: as §1

ragweed [8] = assay: Test A preemergence; type: in vivo, Ambrosia artemisiifolia
In short: as §1

ryegrass, Italian [9] = assay: Test A preemergence; type: in vivo, Lolium multiflorum
In short: as §1

soybean [10] = assay: Test A preemergence; type: in vivo, Glycine max
Source text: as §2

wheat [11] = assay: Test A preemergence; type: in vivo, Triticum aestivum
Source text: as §2

blackgrass [12] = assay: Test A postemergence; type: in vivo, Alopecurus myosuroides
In short: as §1

corn [13] = assay: Test A postemergence; type: in vivo, Zea mays
Source text: as §2

foxtail, giant [14] = assay: Test A postemergence; type: in vivo, Setaria faberi
In short: as §1

goosegrass [15] = assay: Test A postemergence; type: in vivo, Eleusine indica
In short: as §1

kochia [16] = assay: Test A postemergence; type: in vivo, Bassia scoparia
In short: as §1

oat, wild [17] = assay: Test A postemergence; type: in vivo, Avena fatua
Source text: as §2

pigweed, palmer [18] = assay: Test A postemergence; type: in vivo, Amaranthus palmeri
In short: as §1

ragweed [19] = assay: Test A postemergence; type: in vivo, Ambrosia artemisiifolia
In short: as §1

ryegrass, Italian [20] = assay: Test A postemergence; type: in vivo, Lolium multiflorum
In short: as §1

soybean [21] = assay: Test A postemergence; type: in vivo, Glycine max
Source text: as §2

wheat [22] = assay: Test A postemergence; type: in vivo, Triticum aestivum
Source text: as §2

galium = assay: Test A postemergence; type: in vivo, Galium aparine
In short: as §1

barnyardgrass = assay: Test B flooded paddy test; type: in vivo, Echinochloa crus-galli; conditions: 250 g ai/ha, Flood, 13 days, 0 to 100 scale (0 no effect, 100 complete control)
In short: (§3)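 Percent weed or crop control, judged by eye on a 0–100 scale 13 days post-treatment, reflects compound added to a 3 cm flood maintained over 2-leaf plants in the greenhouse. Missing entries are marked with a dash.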

ducksalad = assay: Test B flooded paddy test; type: in vivo, Heteranthera limosa; conditions: 250 g ai/ha, Flood, 13 days, 0 to 100 scale (0 no effect, 100 complete control)
In short: as §3

rice = assay: Test B flooded paddy test; type: in vivo, Oryza sativa; conditions: 250 g ai/ha, Flood, 13 days, 0 to 100 scale (0 no effect, 100 complete control)
In short: as §3

sedge, umbrella = assay: Test B flooded paddy test; type: in vivo, Cyperus difformis; conditions: 250 g ai/ha, Flood, 13 days, 0 to 100 scale (0 no effect, 100 complete control)
In short: as §3

horseweed = assay: Test A postemergence; type: in vivo, Erigeron canadensis; conditions: postemergence, 10 days, visual injury, 0 to 100 scale (0 no effect, 100 complete control)
In short: as §1

[23] = 125 g ai/ha, visual injury after 10 days, 0 to 100 scale, 0 is no effect, 100 is complete control
[24] = 500 g ai/ha, 0 to 100 scale (0 no effect, 100 complete control), 10 days
[25] = 125 g ai/ha, postemergence, 10 days, visual injury, 0 to 100 scale (0 no effect, 100 complete control)
[26] = 500 g ai/ha, Postemergence, 0 to 100 scale
[27] = 500 g ai/ha, postemergence, 10 days, visual injury, 0 to 100 scale (0 no effect, 100 complete control)

CC1CN(C(=O)c2cccc(-n3cncn3)c2)c2cccc(C3CC3)c2O1 (centres unmarked) [Compound 42]
Plant response rating, Blackgrass (blackgrass [1]; [23]): 30 | Plant response rating, Blackgrass (blackgrass [1]; [24]): 60 | Plant response rating, Corn (corn [2]; [23]): 0 | Plant response rating, Corn (corn [2]; [24]): 0 | Plant response rating, Foxtail, Giant (foxtail, giant [3]; [23]): 10 | Plant response rating, Foxtail, Giant (foxtail, giant [3]; [24]): 90 | Plant response rating, Goosegrass (goosegrass [4]; [23]): 30 | Plant response rating, Goosegrass (goosegrass [4]; [24]): 90 | Plant response rating, Kochia (kochia [5]; [23]): 0 | Plant response rating, Kochia (kochia [5]; [24]): 20 | Plant response rating, Oat, Wild (oat, wild [6]; [23]): 0 | Plant response rating, Oat, Wild (oat, wild [6]; [24]): 50 | Plant response rating, Pigweed, Palmer (pigweed, palmer [7]; [23]): 10 | Plant response rating, Pigweed, Palmer (pigweed, palmer [7]; [24]): 80 | Plant response rating, Ragweed (ragweed [8]; [23]): 0 | Plant response rating, Ragweed (ragweed [8]; [24]): 0 | Plant response rating, Ryegrass, Italian (ryegrass, Italian [9]; [23]): 50 | Plant response rating, Ryegrass, Italian (ryegrass, Italian [9]; [24]): 100 | Plant response rating, Soybean (soybean [10]; [23]): 0 | Plant response rating, Soybean (soybean [10]; [24]): 0 | Plant response rating, Wheat (wheat [11]; [23]): 0 | Plant response rating, Wheat (wheat [11]; [24]): 20 | Plant response rating, Blackgrass (blackgrass [12]; [25]): 0 | Plant response rating, Blackgrass (blackgrass [12]; [26]): 40 | Plant response rating, Corn (corn [13]; [25]): 10 | Plant response rating, Corn (corn [13]; [26]): 40 | Plant response rating, Foxtail, Giant (foxtail, giant [14]; [25]): 20 | Plant response rating, Foxtail, Giant (foxtail, giant [14]; [26]): 70 | Plant response rating, Goosegrass (goosegrass [15]; [25]): 20 | Plant response rating, Goosegrass (goosegrass [15]; [26]): 30 | Plant response rating, Kochia (kochia [16]; [25]): 0 | Plant response rating, Kochia (kochia [16]; [26]): 80 | Plant response rating, Oat, Wild (oat, wild [17]; [25]): 0 | Plant response rating, Oat, Wild (oat, wild [17]; [26]): 10 | Plant response rating, Pigweed, Palmer (pigweed, palmer [18]; [25]): 30 | Plant response rating, Pigweed, Palmer (pigweed, palmer [18]; [26]): 10 | Plant response rating, Ragweed (ragweed [19]; [25]): 0 | Plant response rating, Ragweed (ragweed [19]; [26]): 0 | Plant response rating, Ryegrass, Italian (ryegrass, Italian [20]; [25]): 0 | Plant response rating, Ryegrass, Italian (ryegrass, Italian [20]; [26]): 50 | Plant response rating, Soybean (soybean [21]; [25]): 70 | Plant response rating, Soybean (soybean [21]; [26]): 90 | Plant response rating, Wheat (wheat [22]; [25]): 0 | Plant response rating, Wheat (wheat [22]; [26]): 20 | Plant response rating, Galium (galium; [25]): 50 | Plant response rating, Galium (galium; [26]): 70 | Plant response rating, Barnyardgrass (barnyardgrass): 0 | Plant response rating, Ducksalad (ducksalad): 0 | Plant response rating, Rice (rice): 0 | Plant response rating, Sedge, Umbrella (sedge, umbrella): 0

Cc1cccc2c1O[C@@H](C)CN2C(=O)c1cccc(-n2cnc(C3CCC3)n2)c1 [Compound 77]
Plant response rating, Corn (corn [2]; [23]): 0 | Plant response rating, Corn (corn [2]; [24]): 30 | Plant response rating, Foxtail, Giant (foxtail, giant [3]; [23]): 90 | Plant response rating, Foxtail, Giant (foxtail, giant [3]; [24]): 100 | Plant response rating, Goosegrass (goosegrass [4]; [23]): 100 | Plant response rating, Goosegrass (goosegrass [4]; [24]): 100 | Plant response rating, Kochia (kochia [5]; [23]): 90 | Plant response rating, Kochia (kochia [5]; [24]): 90 | Plant response rating, Pigweed, Palmer (pigweed, palmer [7]; [23]): 90 | Plant response rating, Pigweed, Palmer (pigweed, palmer [7]; [24]): 100 | Plant response rating, Ragweed (ragweed [8]; [23]): 0 | Plant response rating, Ragweed (ragweed [8]; [24]): 0 | Plant response rating, Ryegrass, Italian (ryegrass, Italian [9]; [23]): 80 | Plant response rating, Ryegrass, Italian (ryegrass, Italian [9]; [24]): 100 | Plant response rating, Soybean (soybean [10]; [23]): 0 | Plant response rating, Soybean (soybean [10]; [24]): 50 | Plant response rating, Wheat (wheat [11]; [23]): 20 | Plant response rating, Wheat (wheat [11]; [24]): 50 | Plant response rating, Blackgrass (blackgrass [12]; [25]): 50 | Plant response rating, Blackgrass (blackgrass [12]; [26]): 70 | Plant response rating, Corn (corn [13]; [25]): 40 | Plant response rating, Corn (corn [13]; [27]): 80 | Plant response rating, Foxtail, Giant (foxtail, giant [14]; [25]): 70 | Plant response rating, Foxtail, Giant (foxtail, giant [14]; [27]): 90 | Plant response rating, Goosegrass (goosegrass [15]; [25]): 20 | Plant response rating, Goosegrass (goosegrass [15]; [27]): 60 | Plant response rating, Kochia (kochia [16]; [25]): 90 | Plant response rating, Kochia (kochia [16]; [27]): 90 | Plant response rating, Oat, Wild (oat, wild [17]; [27]): 10 | Plant response rating, Pigweed, Palmer (pigweed, palmer [18]; [27]): 70 | Plant response rating, Ragweed (ragweed [19]; [27]): 0 | Plant response rating, Ryegrass, Italian (ryegrass, Italian [20]; [27]): 60 | Plant response rating, Soybean (soybean [21]; [27]): 100 | Plant response rating, Wheat (wheat [22]; [27]): 30 | Plant response rating, Galium (galium; [25]): 100 | Plant response rating, Galium (galium; [27]): 100 | Plant response rating, Horseweed (horseweed; 125 g ai/ha): 50 | Plant response rating, Horseweed (horseweed; 500 g ai/ha): 50 | Plant response rating, Barnyardgrass (barnyardgrass): 0 | Plant response rating, Ducksalad (ducksalad): 20 | Plant response rating, Rice (rice): 0 | Plant response rating, Sedge, Umbrella (sedge, umbrella): 85
